Assay results: patent US10689354B2, “Aminoazole derivative” (Teijin Pharma Limited, priority 2015, dated 2020)

Legend:
human androgen receptor = molecular target: T1, human androgen receptor (Homo sapiens, UniProt P10275); test: Reporter assay of an androgen receptor responsive sequence (luciferase, transiently transfected HEK293 cells); type: cell-based; conditions: 24 hours incubation, relative to activity of 100 nM DHT, read-out: AR transcriptive activity (pEC50) (converted)
T1 construct: expressed in transfected cells; host or cells: HEK293
T1 sequence (P10275 1-920): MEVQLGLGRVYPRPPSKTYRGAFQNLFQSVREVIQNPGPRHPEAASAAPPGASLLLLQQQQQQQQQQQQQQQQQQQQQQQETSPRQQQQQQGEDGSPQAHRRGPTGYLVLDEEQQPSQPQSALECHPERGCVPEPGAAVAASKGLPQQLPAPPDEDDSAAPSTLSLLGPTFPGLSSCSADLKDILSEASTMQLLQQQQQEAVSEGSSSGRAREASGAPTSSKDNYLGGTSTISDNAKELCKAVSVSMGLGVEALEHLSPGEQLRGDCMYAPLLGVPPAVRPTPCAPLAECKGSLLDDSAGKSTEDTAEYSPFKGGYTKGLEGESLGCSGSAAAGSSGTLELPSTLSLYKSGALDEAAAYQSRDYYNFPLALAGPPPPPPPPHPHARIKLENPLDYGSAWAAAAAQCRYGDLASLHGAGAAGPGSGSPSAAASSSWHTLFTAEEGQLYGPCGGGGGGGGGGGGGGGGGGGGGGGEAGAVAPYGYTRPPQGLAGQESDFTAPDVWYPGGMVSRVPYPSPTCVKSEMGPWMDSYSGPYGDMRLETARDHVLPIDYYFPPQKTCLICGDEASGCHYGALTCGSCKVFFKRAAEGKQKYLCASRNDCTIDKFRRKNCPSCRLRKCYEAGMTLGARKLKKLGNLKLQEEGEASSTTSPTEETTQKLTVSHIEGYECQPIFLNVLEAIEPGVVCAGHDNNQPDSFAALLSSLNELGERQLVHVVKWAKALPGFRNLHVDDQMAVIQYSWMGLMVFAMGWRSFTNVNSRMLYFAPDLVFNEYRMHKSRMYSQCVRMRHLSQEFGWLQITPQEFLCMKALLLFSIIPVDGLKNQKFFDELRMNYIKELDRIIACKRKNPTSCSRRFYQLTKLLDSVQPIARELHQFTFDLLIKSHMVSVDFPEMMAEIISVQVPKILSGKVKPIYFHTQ
How it was run: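 HEK293 cells transiently transfected for 3 h with ARE-firefly luciferase, full-length human AR and TK-Renilla plasmids, then exposed to compound for 24 h at 37 °C in 5% charcoal-treated FBS/DMEM. Dual-Glo luminescence read; pEC50 from 4-parameter fit relative to 100 nM DHT.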

[1] = molecular target: T2, androgen receptor (AR-LBD) (Rattus norvegicus, UniProt P15207); test: Evaluation of androgen receptor affinity (PolarScreen Androgen Receptor Competitor Assay Kit, Red; fluorescence polarization); conditions: 22° C. for 5 hours, relative to binding rate of 1 μM DHT, read-out: AR affinity (pEC50) (converted)
T2 construct: 5 μL of 2×AR-LBD/Fluoromone AL Red Complex contained in the kit; purchased Invitrogen
T2 sequence (P15207 651-882 limits assumed): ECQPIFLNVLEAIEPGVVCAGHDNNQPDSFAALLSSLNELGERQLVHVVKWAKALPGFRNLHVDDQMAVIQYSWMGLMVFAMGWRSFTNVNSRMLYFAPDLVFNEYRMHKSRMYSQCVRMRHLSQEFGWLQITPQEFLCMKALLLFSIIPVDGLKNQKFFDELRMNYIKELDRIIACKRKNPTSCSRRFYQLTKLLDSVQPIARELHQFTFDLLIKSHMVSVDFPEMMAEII
How it was run: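 Fluorescence polarization read-out after 5 h at 22° C of compound with a red-fluorophore-labelled AR-LBD complex. Displacement is scaled against 1 μM DHT, and the log reciprocal of the concentration reaching half that effect gives pEC50 via four-parameter curve fitting.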

EC50 (human androgen receptor)	EC50 [1]	SMILES
2510 nM	158 nM	Cc1oc(N(Cc2nc3ccccc3s2)c2ccc(C#N)cc2)nc1C(=O)NS(C)(=O)=O [Compound 630, 2-[N-(1,3-benzothiazol-2-ylmethyl)-4-cyano-anilino]-5-methyl-N-methylsulfonyl-oxazole-4-carboxamide]
6310 nM	501 nM	CNC(=O)c1ccc(CCN(Cc2ccccc2)c2nc(C(=O)NS(C)(=O)=O)c(C)s2)cc1 [Compound 738, 2-[benzyl-[2-[4-(methylcarbamoyl)phenyl]ethyl]amino]-5-methyl-N-methylsulfonyl-thiazole-4-carboxamide]
> 10000 nM	200 nM	Cc1sc(N(Cc2ccccc2)c2ccc3ccccc3c2)nc1C(=O)NS(C)(=O)=O [Example 232, 2-[benzyl(2-naphthyl)amino]-5-methyl-N-methylsulfonyl-thiazole-4-carboxamide]
3160 nM	63.1 nM	Cc1sc(N(CCc2ccc(Cl)cc2)Cc2ccc(Cl)cc2)nc1C(=O)NS(=O)(=O)C1CC1 [Compound 694, 2-[2-(4-chlorophenyl)ethyl-[(4-chlorophenyl)methyl]amino]-N-cyclopropylsulfonyl-5-methyl-thiazole-4-carboxamide]
200 nM	316 nM	COCCCS(=O)(=O)NC(=O)c1nc(N(Cc2ccc(Br)cn2)c2ccc(C#N)cc2)sc1C [Example 188, 2-[N-[(5-bromo-2-pyridyl)methyl]-4-cyano-anilino]-N-(3-methoxypropylsulfonyl)-5-methyl-thiazole-4-carboxamide]
1260 nM	31.6 nM	Cc1sc(N(CCc2ccc(Cl)cc2)Cc2ccc(C#N)cc2)nc1C(=O)NS(C)(=O)=O [Compound 503, 2-[2-(4-chlorophenyl)ethyl-[(4-cyanophenyl)methyl]amino]-5-methyl-N-methylsulfonyl-thiazole-4-carboxamide]
1000 nM	39.8 nM	Cc1sc(N(Cc2ccc(OC(F)(F)F)cc2)c2ccc(C#N)cc2)nc1C(=O)NS(=O)(=O)CCCC#N [Example 199, N-(3-cyanopropylsulfonyl)-2-[4-cyano-N-[[4-(trifluoromethoxy)phenyl]methyl]anilino]-5-methyl-thiazole-4-carboxamide]
398 nM	39.8 nM	CCc1oc(N(Cc2ccc(C(F)(F)F)c(F)c2)c2ccc(C#N)cc2)nc1C(=O)NS(C)(=O)=O [Compound 655, 2-[4-cyano-N-[[3-fluoro-4-(trifluoromethyl)phenyl]methyl]anilino]-5-ethyl-N-methylsulfonyl-oxazole-4-carboxamide]
158 nM	50.1 nM	COc1cccc(CN(c2ccc(C#N)cc2)c2nc(C(=O)NS(C)(=O)=O)c(Br)s2)c1 [Example 265, 5-bromo-2-[4-cyano-N-[(3-methoxyphenyl)methyl]anilino]-N-methylsulfonyl-thiazole-4-carboxamide]
2000 nM	25.1 nM	Cc1sc(N(CCc2ccc(C#N)cc2)Cc2ccc(OC(F)(F)F)cc2)nc1C(=O)NS(=O)(=O)Cc1ccncc1 [Compound 742, 2-[2-(4-cyanophenyl)ethyl-[[4-(trifluoromethoxy)phenyl]methyl]amino]-5-methyl-N-(4-pyridylmethylsulfonyl)thiazole-4-carboxamide]
> 10000 nM	100 nM	CC(C)c1sc(N(Cc2ccccc2)c2ccc(C#N)cc2)nc1C(=O)NS(C)(=O)=O [Compound 600, 2-(N-benzyl-4-cyano-anilino)-5-isopropyl-N-methylsulfonyl-thiazole-4-carboxamide]

Second part, the compound before the results:

SMILES	EC50 (human androgen receptor)	EC50 [1]
Cc1sc(N(CCc2ccc(Cl)cc2)Cc2cccc(Cl)c2)nc1C(=O)NS(C)(=O)=O [Compound 144, 2-[2-(4-chlorophenyl)ethyl-[(3-chlorophenyl)methyl]amino]-5-methyl-N-methylsulfonyl-thiazole-4-carboxamide]	63.1 nM	25.1 nM
Cc1sc(N(CCCC2CCCC2)c2ccc(C#N)cc2)nc1C(=O)NS(C)(=O)=O [Compound 485, 2-[4-cyano-N-(3-cyclopentylpropyl)anilino]-5-methyl-N-methylsulfonyl-thiazole-4-carboxamide]	126 nM	20 nM
Cc1sc(N(Cc2ccc(Br)nc2)c2ccc(C#N)cc2)nc1C(=O)NS(C)(=O)=O [Compound 496, 2-[N-[(6-bromo-3-pyridyl)methyl]-4-cyano-anilino]-5-methyl-N-methylsulfonyl-thiazole-4-carboxamide]	158 nM	126 nM
COCCCS(=O)(=O)NC(=O)c1nc(N(Cc2ccc(C(F)(F)F)nc2)c2ccc(C#N)cc2)sc1C [Compound 164, 2-[4-cyano-N-[[6-(trifluoromethyl)-3-pyridyl]methyl]anilino]-N-(3-methoxypropylsulfonyl)-5-methyl-thiazole-4-carboxamide]	631 nM	251 nM
CSc1cccc(CN(c2ccc(C#N)cc2)c2nc(C(=O)NS(C)(=O)=O)c(C)s2)c1 [Compound 431, 2-[4-cyano-N-[(3-methylsulfanylphenyl)methyl]anilino]-5-methyl-N-methylsulfonyl-thiazole-4-carboxamide]	316 nM	20 nM
COc1c(F)c(CN(c2ccc(C#N)cc2)c2nc(C(=O)NS(C)(=O)=O)c(C)s2)c(F)c(F)c1C(F)(F)F [Compound 418, 2-[4-cyano-N-[[2,3,6-trifluoro-5-methoxy-4-(trifluoromethyl)phenyl]methyl]anilino]-5-methyl-N-methylsulfonyl-thiazole-4-carboxamide]	158 nM	50.1 nM
Cc1sc(N(Cc2ccccc2)c2ccc(C#N)cc2)nc1C(=O)NS(C)(=O)=O [Compound 1, 2-(N-benzyl-4-cyano-anilino)-5-methyl-N-methylsulfonyl-thiazole-4-carboxamide]	79.4 nM	63.1 nM
Cc1sc(N(Cc2ccccc2O)c2ccc(C#N)cc2)nc1C(=O)NS(C)(=O)=O [Compound 461, 2-[4-cyano-N-[(2-hydroxyphenyl)methyl]anilino]-5-methyl-N-methylsulfonyl-thiazole-4-carboxamide]	158 nM	100 nM
Cc1sc(N(CCC2CCCCO2)c2ccc(C#N)cc2)nc1C(=O)NS(C)(=O)=O (stereo not drawn) [Compound 443, 2-[4-cyano-N-(2-tetrahydropyran-2-ylethyl)anilino]-5-methyl-N-methylsulfonyl-thiazole-4-carboxamide]	501 nM	200 nM
Cc1sc(N(Cc2cccc(C(F)(F)F)c2)c2ccc(C#N)cc2)nc1C(=O)NS(C)(=O)=O [Compound 24, 2-[4-cyano-N-[[3-(trifluoromethyl)phenyl]methyl]anilino]-5-methyl-N-methylsulfonyl-thiazole-4-carboxamide]	200 nM	20 nM
COc1cccc(CN(c2ccc(C#N)cc2)c2nc(C(=O)NS(C)(=O)=O)c(C)s2)n1 [Compound 491, 2-[4-cyano-N-[(6-methox-2-pyridyl)methyl]anilino]-5-methyl-N-methylsulfonyl-thiazole-4-carboxamide]	316 nM	100 nM
Cc1sc(N(Cc2ccccc2OC(F)F)c2ccc(C#N)cc2)nc1C(=O)NS(C)(=O)=O [Compound 5, 2-[4-cyano-N-[[2-(difluoromethoxy)phenyl]methyl]anilino]-5-methyl-N-methylsulfonyl-thiazole-4-carboxamide]	251 nM	100 nM
Cc1sc(N(Cc2cccc3nsnc23)c2ccc(C#N)cc2)nc1C(=O)NS(C)(=O)=O [Compound 437, 2-[N-(2,1,3-benzothiadiazol-4-ylmethyl)-4-cyano-anilino]-5-methyl-N-methylsulfonyl-thiazole-4-carboxamide]	126 nM	50.1 nM
